This is an account of results in patent publication US5162336A, “Tetrahydro-pyrido-indoles as cholecystokinin and gastrin antagonists” (Rhone-Poulenc Rorer Pharmaceuticals Inc., priority 1990, dated 1992).

Structures are written as SMILES.

One may read the IC50 as the midpoint of a concentration-inhibition curve.

In the experiment the target is T1, Gastrin receptor (Cavia porcellus, UniProt H0VZC5).
T1 construct: The fundic mucosa is gently scraped off the submucosa; from tissue; host or cells: gastric glands from fundic mucosa of Hartley guinea pig
T1 sequence (H0VZC5 1-426): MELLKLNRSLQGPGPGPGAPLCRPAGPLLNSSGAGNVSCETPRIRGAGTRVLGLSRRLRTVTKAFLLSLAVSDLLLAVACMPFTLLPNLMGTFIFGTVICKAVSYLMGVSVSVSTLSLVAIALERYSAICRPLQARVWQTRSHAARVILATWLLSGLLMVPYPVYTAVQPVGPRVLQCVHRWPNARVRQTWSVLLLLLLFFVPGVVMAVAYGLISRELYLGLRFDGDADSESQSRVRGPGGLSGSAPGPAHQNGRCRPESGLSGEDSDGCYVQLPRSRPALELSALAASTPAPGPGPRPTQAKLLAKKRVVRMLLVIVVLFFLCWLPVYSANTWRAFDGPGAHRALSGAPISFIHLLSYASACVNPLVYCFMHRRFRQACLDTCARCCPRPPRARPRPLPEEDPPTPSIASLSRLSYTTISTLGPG
Nature of the experiment: Gastrin receptor binding assay (displacement of 125I-(Leu-15)-Gastrin from guinea pig fundic glands). Details: species or system guinea pig (Hartley Strain). The following applies: guinea pig fundic mucosa glands, 25° C., 30 min, read-out: In vitro Binding Data IC50 Gastrin. In a few lines: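 Isolated gastric fundic glands from Hartley guinea pig (collagenase digestion, 2x10^5 glands/ml) incubated 30 min at 25 °C under 95% O2/5% CO2 with tracer ^125I-(Leu-15)-gastrin and compound in triplicate. Bound tracer collected on glass fiber filters and gamma-counted; nonspecific defined with 25 μM (Leu-15)-gastrin stock. IC50 = concentration giving 50% loss of specific binding, from log-concentration plot.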
For orientation: In a radioligand displacement assay an active substance lowers the binding of a labelled ligand.
For the compound `CCCCCN(CCCCC)C(=O)[C@H]1Cc2c([nH]c3ccccc23)CN1C(=O)Nc1cccc(C)c1` [Example 13, (3R)-3-(N,N-dipentylcarbamoyl)-2-(3-methylphenylcarbamoyl)-1,2,3,4-tetrahydro-9H-pyrido[3,4-b]indole], the IC50 is above 300 µM.
`CC(C)C[C@H](NC(=O)[C@H]1Cc2c([nH]c3ccccc23)CN1C(=O)Nc1ccc(Cl)c(Cl)c1)C(=O)NCCC(=O)O` [Example 27]: the IC50 was determined as 0.41 µM.
Turning to `NC(=O)[C@H](CC(=O)O)NC(=O)[C@H]1Cc2c([nH]c3ccccc23)CN1` [Example 3, N-[(3R)-1,2,3,4-tetrahydro-9H-pyrido[3,4-b]-indole-3-carboxyl]-L-aspartic acid amide], the 50% inhibitory concentration (IC50) is above 300 µM.
